This assay has as its target Nav 1.7 (Homo sapiens (Human), UniProt Q15858). Briefly: in-vitro Nav 1.7 PX (IC50). In kind it is cell-based. The conditions noted are these: in-vitro Nav 1.7 PX data.
Chain of Nav 1.7 (Q15858 whole entry): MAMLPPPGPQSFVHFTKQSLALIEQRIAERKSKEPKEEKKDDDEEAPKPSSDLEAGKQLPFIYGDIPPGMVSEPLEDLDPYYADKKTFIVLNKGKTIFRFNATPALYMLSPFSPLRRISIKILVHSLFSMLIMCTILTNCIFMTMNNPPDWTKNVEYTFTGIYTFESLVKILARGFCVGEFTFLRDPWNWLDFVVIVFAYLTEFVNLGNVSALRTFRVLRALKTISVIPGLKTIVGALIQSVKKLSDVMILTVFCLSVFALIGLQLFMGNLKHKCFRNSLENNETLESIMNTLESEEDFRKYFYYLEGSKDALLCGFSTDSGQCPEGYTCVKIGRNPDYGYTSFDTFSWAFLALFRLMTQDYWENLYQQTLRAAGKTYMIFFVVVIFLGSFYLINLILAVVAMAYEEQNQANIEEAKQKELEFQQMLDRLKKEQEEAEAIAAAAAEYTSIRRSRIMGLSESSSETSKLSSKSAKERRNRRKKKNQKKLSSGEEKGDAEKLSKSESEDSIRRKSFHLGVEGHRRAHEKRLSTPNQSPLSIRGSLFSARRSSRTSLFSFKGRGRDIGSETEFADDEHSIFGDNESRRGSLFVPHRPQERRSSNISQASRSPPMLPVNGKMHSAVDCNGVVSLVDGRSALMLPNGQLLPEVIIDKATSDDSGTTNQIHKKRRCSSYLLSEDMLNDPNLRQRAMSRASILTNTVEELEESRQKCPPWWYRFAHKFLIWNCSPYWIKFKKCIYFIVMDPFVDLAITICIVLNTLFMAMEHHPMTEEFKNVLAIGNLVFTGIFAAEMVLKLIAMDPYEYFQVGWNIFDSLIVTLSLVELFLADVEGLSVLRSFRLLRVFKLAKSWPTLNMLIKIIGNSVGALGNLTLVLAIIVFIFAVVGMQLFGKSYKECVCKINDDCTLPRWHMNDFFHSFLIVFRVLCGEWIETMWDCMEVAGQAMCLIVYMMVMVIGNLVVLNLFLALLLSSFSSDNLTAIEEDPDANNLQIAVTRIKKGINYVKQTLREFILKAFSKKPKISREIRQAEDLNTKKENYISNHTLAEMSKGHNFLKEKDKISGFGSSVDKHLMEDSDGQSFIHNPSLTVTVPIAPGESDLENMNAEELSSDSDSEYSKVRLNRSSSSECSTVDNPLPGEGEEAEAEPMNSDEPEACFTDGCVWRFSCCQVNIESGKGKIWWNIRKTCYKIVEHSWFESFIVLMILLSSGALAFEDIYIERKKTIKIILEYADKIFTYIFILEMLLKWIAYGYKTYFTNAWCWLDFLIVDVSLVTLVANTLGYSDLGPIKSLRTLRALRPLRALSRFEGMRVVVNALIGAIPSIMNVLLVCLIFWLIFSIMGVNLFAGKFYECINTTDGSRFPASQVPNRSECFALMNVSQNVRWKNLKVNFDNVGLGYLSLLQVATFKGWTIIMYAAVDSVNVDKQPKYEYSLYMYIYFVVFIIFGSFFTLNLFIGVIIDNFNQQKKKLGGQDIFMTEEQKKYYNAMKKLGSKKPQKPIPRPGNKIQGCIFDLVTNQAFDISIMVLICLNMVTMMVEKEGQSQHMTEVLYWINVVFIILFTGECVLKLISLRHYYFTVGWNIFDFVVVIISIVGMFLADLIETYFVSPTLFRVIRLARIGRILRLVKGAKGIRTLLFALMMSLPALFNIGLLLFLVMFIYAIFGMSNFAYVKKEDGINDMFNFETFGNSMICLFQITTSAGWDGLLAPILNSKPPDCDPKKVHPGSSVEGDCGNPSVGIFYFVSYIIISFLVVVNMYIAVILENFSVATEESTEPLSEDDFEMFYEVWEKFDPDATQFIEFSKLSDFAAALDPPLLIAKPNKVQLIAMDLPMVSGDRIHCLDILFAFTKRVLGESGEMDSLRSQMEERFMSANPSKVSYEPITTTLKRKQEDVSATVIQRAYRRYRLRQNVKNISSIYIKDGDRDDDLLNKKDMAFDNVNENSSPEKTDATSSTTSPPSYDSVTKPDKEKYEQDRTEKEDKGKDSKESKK
One may read the IC50 as the concentration that inhibits the measured activity by half. Low readings indicate inhibition by little substance, high ones a need for much substance. In turn, `COc1ccc(-c2cc(F)cc(Cl)c2)cc1-n1c(=O)ccc2cc(S(=O)(=O)Nc3cnccn3)ccc21` [Example 860, 1-(3′-chloro-5′-fluoro-4-methoxy-3-biphenylyl)-2-oxo-N-2-pyrazinyl-1,2-dihydro-6-quinolinesulfonamide] displayed an IC50 of 0.251 µM.
`COc1ccc(-c2cc(F)cc(Cl)c2)cc1-n1c(=O)ccc2cc(S(=O)(=O)Nc3cccnn3)ccc21` [Example 861, 1-(3′-chloro-5′-fluoro-4-methoxy-3-biphenylyl)-2-oxo-N-3-pyridazinyl-1,2-dihydro-6-quinolinesulfonamide] displayed an IC50 of 0.038 µM.
The molecule `COc1ccc(-c2cc(F)cc(Cl)c2)cc1-n1c(=O)ccc2cc(S(=O)(=O)Nc3ncco3)ccc21` [Example 864, 1-(3′-chloro-5′-fluoro-4-methoxy-3-biphenylyl)-N-1,3-oxazol-2-yl-2-oxo-1,2-dihydro-6-quinolinesulfonamide] displayed an IC50 of 0.043 µM.
`COc1ccc(-c2cc(F)cc(F)c2)cc1-n1c(=O)ccc2cc(S(=O)(=O)Nc3ccon3)ccc21` [Example 865, 1-(3′,5′-difluoro-4-methoxy-3-biphenylyl)-N-3-isoxazolyl-2-oxo-1,2-dihydro-6-quinolinesulfonamide]: the midpoint of inhibition, the IC50, lay at 0.053 µM.
`COc1ccc(-c2cc(C)cc(Cl)c2)cc1-n1c(=O)ccc2cc(S(=O)(=O)Nc3ccon3)ccc21` [Example 867, 1-(3′-chloro-4-methoxy-5′-methyl-3-biphenylyl)-N-3-isoxazolyl-2-oxo-1,2-dihydro-6-quinolinesulfonamide] registered an IC50 of 0.016 µM.
Next, `COc1cc(-c2ccc(OC)c(-n3c(=O)ccc4cc(S(=O)(=O)Nc5ccon5)ccc43)c2)ccc1Cl` [Example 870, 1-(4′-chloro-3′,4-dimethoxy-3-biphenylyl)-N-3-isoxazolyl-2-oxo-1,2-dihydro-6-quinolinesulfonamide]: 0.023 µM.
For `COc1cc(-c2ccc(Cl)c(C#N)c2)c(F)cc1-n1c(=O)ccc2cc(S(=O)(=O)Nc3ncccn3)ccc21` [Example 871, 1-(4′-chloro-3′-cyano-2-fluoro-5-methoxy-4-biphenylyl)-2-oxo-N-2-pyrimidinyl-1,2-dihydro-6-quinolinesulfonamide], the IC50 worked out at 0.044 µM. Compared with the last molecule, the IC50 is about 1.9-fold higher.
For the molecule `COc1ccc(-c2ccc(Cl)c(C)c2)cc1-n1c(=O)ccc2cc(S(=O)(=O)Nc3ccon3)ccc21` [Example 872, 1-(4′-chloro-4-methoxy-3′-methyl-3-biphenylyl)-N-3-isoxazolyl-2-oxo-1,2-dihydro-6-quinolinesulfonamide], the IC50 was determined as 11.6 µM.
On to `COc1ccc(-c2ccc(Cl)c(F)c2)cc1-n1c(=O)ccc2cc(S(=O)(=O)Nc3ccon3)ccc21` [Example 874, 1-(4′-chloro-3′-fluoro-4-methoxy-3-biphenylyl)-N-3-isoxazolyl-2-oxo-1,2-dihydro-6-quinolinesulfonamide], for which the midpoint of inhibition, the IC50, lay at 0.033 µM.
Next, `COc1ccc(-c2ccc(Cl)c(C)c2)cc1-n1c(=O)ccc2cc(S(=O)(=O)Nc3ccon3)ccc21` [Example 875, 1-(4′-chloro-4-methoxy-3′-methyl-3-biphenylyl)-N-3-isoxazolyl-2-oxo-1,2-dihydro-6-quinolinesulfonamide]: 0.015 µM; `COc1ccc(-c2cc(F)cc(Cl)c2)cc1-n1c(=O)ccc2cc(S(=O)(=O)Nc3cnccn3)ccc21` [Example 876, 1-(3′-chloro-5′-fluoro-4-methoxy-3-biphenylyl)-2-oxo-N-2-pyrazinyl-1,2-dihydro-6-quinolinesulfonamide]: 0.206 µM.
Take `COc1ccc(-c2ccc(F)c(C)c2)cc1-n1c(=O)ccc2cc(S(=O)(=O)Nc3ccon3)ccc21` [Example 878, 1-(4′-fluoro-4-methoxy-3′-methyl-3-biphenylyl)-N-3-isoxazolyl-2-oxo-1,2-dihydro-6-quinolinesulfonamide]: the IC50 amounted to 0.021 µM.
Next, `COc1ccc(-c2cc(Cl)ccc2F)cc1-n1c(=O)ccc2cc(S(=O)(=O)Nc3ccon3)ccc21` [Example 880, 1-(5′-chloro-2′-fluoro-4-methoxy-3-biphenylyl)-N-3-isoxazolyl-2-oxo-1,2-dihydro-6-quinolinesulfonamide]: 0.032 µM.

The values above are taken from patent US9212182B2, “Bicyclic sulfonamide compounds as sodium channel inhibitors” (AMGEN INC., priority 2013, dated 2015).
